# Patent publication EP2739262B1, “USE OF A CB1 RECEPTOR ANTAGONIST AS A WHITENING AND/OR ANTI-BROWNING AGENT FOR KERATIN MATERIAL” (L'OREAL, priority 2011, dated 2013)
# Read-outs that look alike come from different tables or passages of the source.
# How the values were obtained:
# [1] = tested on: epidermes reconstruits pigmentés (ERP); assay: Depigmenting effect on reconstructed pigmented epidermis (ERP): melanin quantified by image analysis of Fontana Masson stained sections; assay type: cell-based, humains; conditions: for production de mélanine dans les épidermes pigmentés reconstruits: result in words
# Experimental: Des épidermes pigmentés sont reconstruits sur un support collagénique (BPER) à l'aide de mélanocytes et kératinocytes humains normaux.
# Les épidermes sont obtenus après 8 jours de reconstruction, les mélanocytes choisis sont de phototype estimé IV.1
# Certains épidermes sont traités quotidiennement par le placebo, d'autres par le produit à tester […] à différentes concentrations (0,1 µM et 0,5µM).
# Le produit à tester est évalué à deux concentrations en comparaison à son solvant seul (placebo) et à un actif dépigmentant de référence, le lucinol à 500µM. Les épidermes reconstruits ainsi traités sont irradiés ou non avec des UV.^2
# Chaque condition expérimentale est réalisée en quadruplicat.
# La qualité histologique des épidermes après traitement est évaluée sur coupes histologiques après coloration HES afin de déterminer l'impact du traitement sur les épidermes. Aussi la physiologie des mélanocytes est étudiée pour détecter une éventuelle mélano-cytotoxicité. Si aucune altération histologique ni aucun effet mélano-toxique du produit évalué n'est révélé, une quantification de la pigmentation est effectuée par quantification de la mélanine sur coupes histologiques par analyse d'images
# Une quantification de la pigmentation par quantification microscopique de la mélanine est alors réalisée et permet d'objectiver une activité propigmentante du composé à tester.
# La mélanine présente dans l'épiderme est colorée sur coupes histologiques (coloration Fontana Masson) puis quantifiée par analyse d'images. Pour cela, chaque épiderme est photographié sur toute sa largeur à l'aide d'un microscope. Environ 10 images sont acquises par épiderme (lumière blanche, grossissement X20).
# La surface occupée par la mélanine est quantifiée à l'aide d'un logiciel d'analyse d'image développé à façon. Brièvement, chaque image est segmentée en 4 zones selon leur couleur (lumière, stratum corneum, épiderme vivant et BPER). La mélanine présente dans l'épiderme sous forme de grains noirs est seuillée comme étant la zone la plus sombre de l'épiderme sur le plan rouge. Les pixels occupés par la mélanine dans l'épiderme entier ou les couches vivantes sont ensuite quantifiés.
# Cette quantification rend compte de la surface occupée par la mélanine ainsi que de la localisation moyenne de la mélanine dans l'épiderme.
# Les résultats ci-dessous sont exprimés en pourcentage de stimulation relative par rapport au témoin cultivé en milieu de co-culture standard.
# [2] = tested on: mélanocytes épidermiques humains normaux (NHEM); assay: Melanin content of melanocytes (spectrophotometry at 450 nm); assay type: cell-based; conditions: result in words; for quantité de mélanine dans les mélanocytes (NHEM): via the CB1 receptor
# Experimental: Des mélanocytes épidermiques humains normaux (NHEM) isolés de prépuce et fournis par Promocell (Heidelberg, Allemagne), sont cultivés pendant 24h à 37°C dans une atmosphère humide à 5% de CO2 dans un milieu de culture adapté M2 (Promocell).
# L'AEA et les autres composés sont ajoutés directement dans le milieu de culture. 24h après chaque traitement, la viabilité des cellules a été mesurée par l'utilisation du colorant d'exclusion bleu Trypan (Maccarone et al., 2003).
# Le mAEA et l'AEA sont testés in vitro à une concentration de 1 µM et comparés. Le mAEA est aussi utilisé à cette concentration quand il est utilisé en combinaison avec le SR1 à 0,1 µM.
# La quantité en mélanine présente dans les cellules NHEM est mesurée selon une méthode connue de l'homme du métier (Xiao et al., Arch Dermatol Res 2007; 299 : 245-57). Selon cette méthode, les cellules NHEM sont traitées à la trypsine et lavées deux fois avec un tampon phosphate salin. Ensuite les échantillons sont resuspendus dans 200 µl d'eau MilliQ et 1 ml d'un mélange éthanol : éther (1:1, vol/vol) est ajouté pour éliminer les substances opaques autres que la mélanine. Après 15 minutes, les échantillons sont centrifugés à 600g pendant 5 minutes. Le culot est séché à l'air et dissout dans 200 µl de soude 1N. Les échantillons sont ensuite chauffés à 80°C pendant une heure et refroidis.
# La quantité de mélanine est déterminée par spectrophotométrie à 450 nm en utilisant les contrôles standards de mélanine fournis par Sigma Chemical Co., de façon à vérifier la gamme de linéarité de l'essai. La quantité de mélanine est exprimée par rapport au contrôle.
# Les résultats donnés sont les moyennes avec leurs écarts type de 3 essais indépendants, chacun réalisé en triplicata. Ils ont été comparés par analyse de variance (ANOVA).
compound,measurement,setting,value
CCCCc1ccc(O)cc1O [Lucinol],activity at 50 µM,"[1]; light or radiation study, 360 h, with UV irradiation, 50µM 150mJ/cm^2 UVB SYST D15, irradiated DMSO = 131,914894, read-out: mélanine, % par rapport au témoin (DMSO 1/1000 = 100)",31.9%
same,activity at 30 µM,"[1]; light or radiation study, 408 h, without UV irradiation, 30µM SYST D17, read-out: mélanine, % par rapport au témoin (DMSO 1/1000 = 100)",10.5%
"CCCCC/C=C\C/C=C\C/C=C\C/C=C\CCCC(=O)NCCO [AEA, N-arachidonoylethanolamine]",quantité de mélanine dans les mélanocytes (NHEM),[2],augmentent de manière significative la quantité de mélanine
"CCCCC/C=C\C/C=C\C/C=C\C/C=C\CCCC(=O)N[C@H](C)CO [mAEA, R(+)-arachidonyl-1'-hydroxy-2'-propylamide]",quantité de mélanine dans les mélanocytes (NHEM),[2],augmentent de manière significative la quantité de mélanine
"Cc1c(C(=O)NN2CCCCC2)nn(-c2ccc(Cl)cc2Cl)c1-c1ccc(Cl)cc1 [SR141716, 5-(4-Chlorophenyl)-1-(2,4-dichloro-phenyl)-4-methyl-N-(piperidin-1-yl)-1H-pyrazole-3-carboxamide]",effets pro-pigmentants du mAEA,"[2]; SR1 0,1 µM with mAEA 1 µM",empêche le mAEA d'avoir ses effets pro-pigmentants
same,activity at 0.1 µM,"[1]; light or radiation study, 360 h, with UV irradiation, 0,1µM 150mJ/cm^2 UVB SYST D15, irradiated DMSO = 131,914894, read-out: mélanine, % par rapport au témoin (DMSO 1/1000 = 100)",76.6%
same,activity at 0.5 µM,"[1]; light or radiation study, 360 h, with UV irradiation, 0,5µM 150mJ/cm^2 UVB SYST D15, irradiated DMSO = 131,914894, read-out: mélanine, % par rapport au témoin (DMSO 1/1000 = 100)",55.3%
same,activity at 0.1 µM,"[1]; light or radiation study, 408 h, without UV irradiation, 0,1µM SYST D17, read-out: mélanine, % par rapport au témoin (DMSO 1/1000 = 100)",64.5%
same,activity at 0.5 µM,"[1]; light or radiation study, 408 h, without UV irradiation, 0,5µM SYST D17, read-out: mélanine, % par rapport au témoin (DMSO 1/1000 = 100)",72.4%
same,production de mélanine dans les épidermes pigmentés reconstruits,"[1]; with UV irradiation, 0,1 and 0,5µM",diminution importante de la production de mélanine
same,production de mélanine dans les épidermes pigmentés reconstruits,"[1]; without UV irradiation, 0,1 and 0,5µM",diminution importante de la production de mélanine
